# Experimental data taken from paper PMC6010057, “Synthesis, carbonic anhydrase I and II inhibition studies of the 1,3,5-trisubstituted-pyrazolines” (Journal of Enzyme Inhibition and Medicinal Chemistry, 2016).
# Tests used:
# hCA I = hCA I (Homo sapiens, UniProt P00915); assay: biochemical
# hCA II = hCA II (Homo sapiens, UniProt P00918); assay: biochemical
# Chain of hCA I (P00915 whole entry): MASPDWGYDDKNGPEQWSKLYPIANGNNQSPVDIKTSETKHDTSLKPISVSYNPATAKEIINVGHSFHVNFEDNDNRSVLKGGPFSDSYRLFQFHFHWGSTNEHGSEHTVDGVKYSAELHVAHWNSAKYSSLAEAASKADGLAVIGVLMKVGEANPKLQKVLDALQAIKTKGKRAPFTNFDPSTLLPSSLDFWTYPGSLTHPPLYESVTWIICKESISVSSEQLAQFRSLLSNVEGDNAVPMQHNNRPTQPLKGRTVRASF
SMILES,IC50 (hCA I),Ki (hCA I),IC50 (hCA II),Ki (hCA II)
"NS(=O)(=O)c1ccc(N2N=C(c3ccccc3)CC2c2ccccc2)cc1 (stereo not shown) [Compound 9, 4-(3,5-Diphenyl-4,5-dihydro-1H-pyrazol-1-yl)benzenesulfonamide]",0.555 µM,0.506 ± 0.133 µM,0.586 µM,0.625 ± 0.168 µM
"COc1ccc(C2=NN(c3ccc(S(N)(=O)=O)cc3)C(c3ccccc3)C2)cc1 (stereo not shown) [Compound 11, 4-(3-(4-Methoxyphenyl)-5-phenyl-4,5-dihydro-1H-pyrazol-1-yl)benzenesulfonamide]",0.484 µM,0.533 ± 0.188 µM,0.486 µM,0.469 ± 0.063 µM
"NS(=O)(=O)c1ccc(N2N=C(c3ccc(Cl)cc3)CC2c2ccccc2)cc1 (stereo not shown) [Compound 12, 4-(3-(4-Chlorophenyl)-5-phenyl-4,5-dihydro-1H-pyrazol-1-yl)benzenesulfonamide]",0.403 µM,0.378 ± 0.114 µM,0.559 µM,0.521 ± 0.132 µM
"NS(=O)(=O)c1ccc(N2N=C(c3ccc([N+](=O)[O-])cc3)CC2c2ccccc2)cc1 (stereo not shown) [Compound 15, 4-(3-(4-Nitrophenyl)-5-phenyl-4,5-dihydro-1H-pyrazol-1-yl)benzenesulfonamide]",0.416 µM,0.326 ± 0.0294 µM,0.534 µM,0.43 ± 0.0873 µM

# Second part, the compound after the results:
IC50 (hCA I),Ki (hCA I),IC50 (hCA II),Ki (hCA II),SMILES
0.493 µM,0.462 ± 0.134 µM,0.536 µM,0.587 ± 0.188 µM,"NS(=O)(=O)c1ccc(N2N=C(c3ccc(F)cc3)CC2c2ccccc2)cc1 (stereo not shown) [Compound 13, 4-(3-(4-Fluorophenyl)-5-phenyl-4,5-dihydro-1H-pyrazol-1-yl)benzenesulfonamide]"
0.405 µM,0.317 ± 0.0096 µM,0.471 µM,0.412 ± 0.115 µM,"NS(=O)(=O)c1ccc(N2N=C(c3ccc(Br)cc3)CC2c2ccccc2)cc1 (stereo not shown) [Compound 14, 4-(3-(4-Bromophenyl)-5-phenyl-4,5-dihydro-1H-pyrazol-1-yl)benzenesulfonamide]"
0.528 µM,0.472 ± 0.0575 µM,0.459 µM,0.592 ± 0.135 µM,"NS(=O)(=O)c1ccc(N2N=C(c3ccc(O)cc3)CC2c2ccccc2)cc1 (stereo not shown) [Compound 16, 4-(3-(4-Hydroxyphenyl)-5-phenyl-4,5-dihydro-1H-pyrazol-1-yl)benzenesulfonamide]"
